In patent US20250320234A1, “LONP1 INHIBITOR COMPOUNDS, USES AND METHODS” (Pretzel Therapeutics, Inc., priority 2021, published 2025) one finds IC50 data, which are given here for 16 molecules.

Chain of LONP1 (NM_004793.4) (P36776 68-959): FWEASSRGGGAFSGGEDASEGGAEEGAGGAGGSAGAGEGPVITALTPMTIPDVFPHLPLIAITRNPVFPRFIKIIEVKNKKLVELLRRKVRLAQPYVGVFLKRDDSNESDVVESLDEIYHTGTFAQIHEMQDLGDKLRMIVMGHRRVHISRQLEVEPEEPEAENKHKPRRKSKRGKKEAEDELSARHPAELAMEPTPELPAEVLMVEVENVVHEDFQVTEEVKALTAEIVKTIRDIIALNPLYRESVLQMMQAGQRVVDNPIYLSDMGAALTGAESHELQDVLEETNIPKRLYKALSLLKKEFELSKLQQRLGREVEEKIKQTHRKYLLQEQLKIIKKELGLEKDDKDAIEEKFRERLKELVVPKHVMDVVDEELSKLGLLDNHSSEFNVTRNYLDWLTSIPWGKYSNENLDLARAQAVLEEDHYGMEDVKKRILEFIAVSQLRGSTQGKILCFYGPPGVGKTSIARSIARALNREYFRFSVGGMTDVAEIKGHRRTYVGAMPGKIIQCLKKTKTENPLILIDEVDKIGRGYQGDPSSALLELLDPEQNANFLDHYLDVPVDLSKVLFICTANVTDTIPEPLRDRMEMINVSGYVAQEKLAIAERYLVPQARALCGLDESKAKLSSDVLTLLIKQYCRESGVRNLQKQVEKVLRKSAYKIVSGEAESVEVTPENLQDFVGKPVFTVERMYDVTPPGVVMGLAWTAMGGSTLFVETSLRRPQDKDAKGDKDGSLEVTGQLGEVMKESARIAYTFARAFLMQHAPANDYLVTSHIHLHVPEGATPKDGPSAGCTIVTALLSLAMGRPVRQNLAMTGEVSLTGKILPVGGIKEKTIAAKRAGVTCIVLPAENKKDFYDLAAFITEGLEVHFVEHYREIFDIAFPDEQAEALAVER

This experiment addresses LONP1 (NM_004793.4) (Homo sapiens (Human), UniProt P36776). The experiment in a line: LONP1 FRET-based protease activity assay with fluorogenic peptide substrate. Format: biochemical. The conditions noted are these: LONP1 15 nM, substrate 3 μM, 1 hour at 37° C.; average of a minimum of two repeats. The protocol:
The inhibitory activity of the compounds of the present invention against LONP1, 20S proteasome and other proteases are determined by assays known to persons of ordinary skill in the art (see, e.g., Fishovitz, J. et al. “Active-Site-Directed Chemical Tools for Profiling Mitochondrial Lon Protease” ACS Chem. Biol. 6, 781-788 (2011)).
In this Example, LONP1 (NM_004793.4) activity was measured by a FRET-based assay for protease activity using a fluorogenic peptide DabcylYRGIT(2Abu)SORQK(5-FAM) (Cambridge Research Biochemicals) as substrate. LONP1 activity is followed by an increase in fluorescence signal due to the degradation of the peptide. Inhibition of LONP1 protease activity by an inhibitor compound of the disclosure elicits a decrease in the fluorescent signal.
The assay is performed in a 384-well plate (Greiner, cat. #781076) using the following reagents and conditions: substrate (3 μM) was incubated for 1 hour at 37° C. in the presence of LONP1 (15 nM as monomer), 25 mM Tris pH 8.0, 10 mM MgCl2, 0.03 mg/mL […], 0.5 mM DTT, 0.0003% Tween-20, 10 mM NaCl, 0.06 mM ATP and 0.5 mM EGTA in a 15 μL final volume. The LONP1-containing mix (10 μL) was incubated with the test compound for 15 min at 37° C. before adding the peptide-containing mix (5 μL). Solutions were dispensed using a small cassette-Multidrop Combi (Thermo Scientific). Fluorescence was measured using a PheraStar plate reader (BMG Labtech) FI-FRET EX 485 nm Em 520 nm.
Each value is based on an average of a minimum of two repeats.
In general, IC50 refers to the concentration at which inhibition is half-maximal. Higher therefore signals lower potency. For the molecule `COC[C@@H](NC(=O)c1cnccn1)C(=O)N[C@@H](COCc1ccccc1)B(O)O` [Compound 2, ((R)-2-(benzyloxy)-1-((R)-3-methoxy-2-(pyrazine-2-carboxamido)propanamido)ethyl)boronic acid], the IC50 was in the range of 0.05 to 0.5 µM.
`COC[C@@H](NC(=O)[C@H]1CCC(=O)N1)C(=O)N[C@@H](CCCc1ccccc1)B(O)O` [Compound 8, ((R)-1-((R)-3-methoxy-2-((R)-5-oxopyrrolidine-2-carboxamido)propanamido)-4-phenylbutyl)boronic acid] displayed a half-inhibitory concentration (IC50) of 0.05 to 0.5 µM.
For `COC[C@@H](NC(=O)c1cnccn1)C(=O)N[C@@H](CCCc1cccc(Cl)c1)B(O)O` [Compound 15, ((R)-4-(3-chlorophenyl)-1-((R)-3-methoxy-2-(pyrazine-2-carboxamido)propanamido)butyl)boronic acid], the IC50 was in the range of 0.05 to 0.5 µM.
In the case of `COC[C@H](C(=O)N[C@@H](CCCc1ccccc1)B(O)O)N1C(=O)c2ccccc2C1=O` [Compound 16, ((R)-1-((R)-2-(1,3-dioxoisoindolin-2-yl)-3-methoxypropanamido)-4-phenylbutyl)boronic acid] it was 0.05 to 0.5 µM; in that of `COC[C@@H](NC(=O)c1cnccn1)C(=O)N[C@@H](CCCc1cccc(OC)c1)B(O)O` [Compound 17, ((R)-1-((R)-3-methoxy-2-(pyrazine-2-carboxamido)propanamido)-4-(3-methoxyphenyl)butyl)boronic acid], 0.05 to 0.5 µM; in that of `COC[C@@H](NC(=O)c1cnccn1)C(=O)N[C@@H](CC1CC1)B(O)O` [Compound 18, ((R)-2-cyclopropyl-1-((R)-3-methoxy-2-(pyrazine-2-carboxamido)propanamido)ethyl)boronic acid], 0.05 to 0.5 µM.
Next, `COC[C@H](C(=O)N[C@@H](CCCc1ccccc1)B(O)O)N1C(=O)CCC1=O` [Compound 19, ((R)-1-((R)-2-(2,5-dioxopyrrolidin-1-yl)-3-methoxypropanamido)-4-phenylbutyl)boronic acid]: 0.5 to 5 µM.
Consider `COC[C@@H](NC(=O)c1cnccn1)C(=O)N[C@H](CCOc1ccc(Cl)c(F)c1)B(O)O` [Compound 26, ((S)-3-(4-chloro-3-fluorophenoxy)-1-((R)-3-methoxy-2-(pyrazine-2-carboxamido)propanamido)propyl)boronic acid], for which the half-maximal inhibitory concentration (IC50) fell in the range of 0.5 to 5 µM.
In the case of `COC[C@@H](NC(=O)c1cnccn1)C(=O)N[C@@H](CCOc1ccc(Cl)cc1C)B(O)O` [Compound 27, ((R)-3-(4-chloro-2-methylphenoxy)-1-((R)-3-methoxy-2-(pyrazine-2-carboxamido)propanamido)propyl)boronic acid] it was 0.05 to 0.5 µM; in that of `COC[C@@H](NC(=O)c1cnccn1)C(=O)N[C@H](CCOc1ccc(Cl)cc1F)B(O)O` [Compound 29, ((S)-3-(4-chloro-2-fluorophenoxy)-1-((R)-3-methoxy-2-(pyrazine-2-carboxamido)propanamido)propyl)boronic acid], 0.5 to 5 µM.
In turn, `CO[C@@H](C)[C@@H](NC(=O)c1cnccn1)C(=O)N[C@@H](CCOc1ccccc1)B(O)O` [Compound 30, ((R)-1-((2R,3S)-3-methoxy-2-(pyrazine-2-carboxamido)butanamido)-3-phenoxypropyl)boronic acid] had an IC50 of 0.05 to 0.5 µM.
Molecule `COC[C@@H](NC(=O)c1cnccn1)C(=O)N[C@@H](CC(C)C)B(O)O` [Compound 38, ((R)-1-((R)-3-methoxy-2-(pyrazine-2-carboxamido)propanamido)-3-methylbutyl)boronic acid] displayed an IC50 of 0.05 to 0.5 µM.
Next, `O=C(N[C@H](CO)C(=O)N[C@@H](CCCc1ccc(O)cc1)B(O)O)c1cnccn1` [Compound 39, ((R)-1-((R)-3-hydroxy-2-(pyrazine-2-carboxamido)propanamido)-4-(4-hydroxyphenyl)butyl)boronic acid]: 0.5 to 5 µM.
In the case of `COC[C@@H](NC(=O)c1cnccn1)C(=O)N[C@@H](CCCc1ccc(O)cc1)B(O)O` [Compound 40, ((R)-4-(4-hydroxyphenyl)-1-((R)-3-methoxy-2-(pyrazine-2-carboxamido)propanamido)butyl)boronic acid] it was 0.5 to 5 µM.
In the case of `COC[C@@H](NC(=O)[C@H]1CCCCO1)C(=O)N[C@@H](CCCc1ccccc1)B(O)O` [Compound 41, ((R)-1-((R)-3-methoxy-2-((R)-tetrahydro-2H-pyran-2-carboxamido)propanamido)-4-phenylbutyl)boronic acid] it was 0.05 to 0.5 µM; in that of `COC[C@@H](NC(=O)c1cnccn1)C(=O)N[C@@H](CCC(=O)c1ccccc1)B(O)O` [Compound 53, ((R)-1-((R)-3-methoxy-2-(pyrazine-2-carboxamido)propanamido)-4-oxo-4-phenylbutyl)boronic acid], 0.5 to 5 µM.
